{"source": "patent US20020065213A1", "about": "“METHODS AND COMPOSITIONS FOR NONVIRAL GENE DELIVERY” (priority 1998, published 2002)", "key": {"[1]": {"test_system": "ICR mice", "assay": "Host pretreatment before i.v. CLDC or naked DNA, tissue luciferase activity", "assay_type": "in vivo, mouse", "experimental": "Plasmid: p4241 (HCMV-luciferase, see Liu et al., 1997).\nLiposomes: DOTIM:chol MLV in 1:1 molar ratio.\nDNA:Liposome Ratio: liposome:plasmid 1:16 (μg plasmid DNA to nanomoles total lipid).\nPretreatment: Individual mice in groups of 5 received either 200 μl of D5W only by IV injection, 1 mg dexamethasone (Sigma) in 200 μl D5W by IV tail vein injection, 250 μg Ticlopidine (Sigma) dissolved in 200 μl D5W by IV injection, 175 μg ammonium chloride (Fisher) dissolved in 1000 μl D5W by IP injection, respectively, four hours before IV injection of CLDC. For 4-APP pretreatment, a group of 5 mice were IP injected with 1.5 mg of 4-Aminopyrazolo(3,4d)-pyrimidine (Sigma, A2630) dissolved in 1 ml 0.01 M sodium phosphate, pH 2.5, daily for three days before receiving an IV injection of p4241-containing CLDC as described above. Another group of 5 mice received 1 ml 0.01 M Sodium Phosphate, pH 2.5 solution by IP injection daily for three days before receiving an injection of IV CLDC as above, thus serving as control for 4-APP pretreatment group.\nDNA dose: 40 μg plasmid DNA in 200 μl of 5% dextrose in water (D5@) was injected by tail vein per mouse.\nAnimals: ICR mice:female, 25 grams (Simonsen Labs, Gilroy, Calif.).\nQuantitation of luciferase: Twenty-four hours after injection of CLDC, mice were sacrificed in a CO2 chamber, and lungs, heart, spleen and liver were collected and assayed for luciferase activity. Relative light units were converted to luciferase activity, and an unpaired, two side Student's t test applied for statistical analysis of potential differences between groups as described previously (Liu et al., 1997).\nIn another experiment, the effect of pretreatment on subsequent expression of the same plasmids delivered as naked DNA was examined. Pretreated animals were injected with 6.25 mg of mannitol (Sigma, MO) in 200 microliters of water 2 hours or 24 hours prior to iv administration of the p4241 luciferase vector as naked DNA in water, 50% glycerol or D5W. Control animals received water alone as a pretreatment. […]"}, "[2]": {"test_system": "murine B 16 cells", "assay": "Inhibition of in vitro CLDC-mediated transfection (luciferase) by polysaccharide pretreatment"}, "[3]": {"test_system": "B16 cells", "assay": "DNA uptake by cells after CLDC transfection (luciferase, Southern analysis of nuclear and total DNA)", "assay_type": "cell-based, mouse", "experimental": "Southern analysis. Isolation of total DNA from mouse tissues was performed as described (Liu et al., 1997). Approximately 2×10^6 B16 cells were cultured in 100 mm dishes for each DNA extraction from cultured cells. Two hundred nanograms of DNA per lane were fractionated on 1% agarose/1X TAE gels overnight. Blotting onto Hybond membrane (Amersham, Arlington Heights, Ill.), prehybridization, hybridization, and washes were performed as described (Sambrook et al., 1989). A 1.2 kb HindIII/EcoRV gel-purified fragment of luciferase from p4241 was radioactively labelled using the Random Primed DNA Labeling Kit (Boehringer Mannheim, Indianapolis, Ind.). Nuclei were isolated from 2×10^6 B16 cells as described (Sambrook et al., 1989), and lysed in NP40 lysis buffer (10 mM Tris, pH 7.4, 10 mM sodium chloride, 3 mM magnesium chloride, and 0.5% nonidet P-40). Nuclear DNA was then isolated from washed nuclei using the same technique as for total DNA isolation (Sambrook et al., 1989).\nFucoidan inhibited CLDC-mediated transfection in vitro by blocking DNA uptake by cells. Nuclei were isolated from cells untreated or pretreated with fucoidan and subsequently transfected with CLDC, and nuclear DNA was assayed for the presence of the luciferase plasmid used in making the complex. The nuclei of cells untreated with fucoidan contained luciferase plasmid, as expected from the high levels of luciferase activity observed in untreated cells. Therefore, DNA did traverse the cell membranes of untreated cells."}, "[4]": {"test_system": "ICR female mice", "assay": "Pretreatment of mice before intravenous CLDC (p4241): luciferase, Southern analysis, rhodamine-lipid", "assay_type": "in vivo, mouse", "experimental": "In vivo transfections. Each mouse received 50 μg p4241 complexed to DOTIM:cholesterol MLV containing 1 mole % rhodamine-PE at a ratio of 1:16 (μg DNA per nmole total lipid). Approximately 25 g ICR female mice (Simonson, Gilroy, Calif.) received 200 μl of CLDC intravenously by tail vein injection. Pretreatments of mice were also by intravenous tail vein injections. Fucoidan, dissolved in phosphate buffered saline (PBS), was pre-injected at a dosage of 500 μg per mouse 0, 1, 2, 10, 24, or 48 hrs prior to CLDC injection. Heparinase I and III (Sigma) were dissolved in 0.15 M sodium chloride at a concentration of 75 units per 100 μl, and 100 μl per mouse were injected 15 minutes prior to injection of CLDC. Control mice were preinjected at appropriate times with either PBS or 0.15 M sodium chloride. As an additional control, heparinase I was boiled for 10 minutes to denature and deactivate the enzyme prior to pre-injection. Mice were harvested 24 hours post-CLDC injection, and pieces of lung, liver, heart, and spleen were placed in 1X lysis buffer (Promega, Madison, Wis.) on ice for luciferase assays (Liu et al., 1997). Samples of liver and lung were frozen on dry ice prior to Bligh Dyer extractions for rhodamine-liposome fluorescence analysis and isolation of DNA for Southern analysis as described (Liu et al., 1997)."}, "[5]": {"test_system": "B16 cells, PPC-1 cells", "assay": "Effect on calcium phosphate, adenoviral and electroporation transfection in vitro", "assay_type": "cell-based", "experimental": "B16 cells were electroporated with p4241 as per BioRad (Hercules, Calif.) instructions for the GenePulser II. Calcium phosphate transfections were performed as described in the manufacturer's instructions (Gibco BRL, Grand Island, N.Y.). Adenoviral infection of PPC-1 cells was performed as previously described (Graham and […], 1991)."}, "[6]": {"conditions": "cells pretreated for 30 minutes with 1 μM"}, "[7]": {"conditions": "iv 15 minutes before CLDC injection"}}}
{"compound": "Nc1ncnc2[nH]ncc12", "note": "[Plasmid 4-APP, 4-Aminopyrazolo(3,4d)-pyrimidine]", "values": [{"measurement": "luciferase activity versus buffer-pretreated mice", "setting": "[1]; preinjection before iv CLDC (p4241), 24 hours after CLDC", "result": "significantly increased luciferase activity"}]}
{"compound": "OC[C@@H](O)[C@@H](O)[C@H](O)[C@H](O)CO", "note": "[mannitol]", "values": [{"measurement": "in vivo expression of luciferase from p4241 versus controls", "setting": "[1]; 6.25 mg 2 hours prior to iv naked DNA", "result": "significantly higher"}, {"measurement": "luciferase expression", "setting": "[1]; 6.25 mg 24 hours prior to p4241", "result": "Some increase"}]}
{"compound": "dextran", "values": [{"measurement": "CLDC transfection at high concentrations", "setting": "[2]", "result": "significant elevation of transfection"}, {"measurement": "CLDC transfection in vitro after pretreatment of cells", "setting": "[2]", "result": "failed to inhibit transfection"}]}
{"compound": "dextran sulfate", "values": [{"measurement": "CLDC transfection in vitro after pretreatment of cells", "setting": "[2]", "result": "largely blocked"}, {"measurement": "concentration sufficient to block transfection", "setting": "[2]; murine B 16 cells", "result": 10, "unit": "nM"}]}
{"compound": "fucoidan", "values": [{"measurement": "luciferase DNA in nuclei", "setting": "[3]; [6]", "result": "no luciferase DNA in their nuclei"}, {"measurement": "luciferase expression of cells", "setting": "[3]; [6]", "result": "did not express luciferase"}, {"measurement": "Southern analysis of total DNA from whole cell extracts", "setting": "[3]; pretreated cultured cells", "result": "failed to show evidence of any DNA crossing the cell membranes"}, {"measurement": "CLDC transfection in vitro after pretreatment of cells", "setting": "[2]", "result": "largely blocked"}, {"measurement": "effect on CLDC-mediated transfection, cells pretreated", "setting": "[2]; 10 nM", "result": "little effect"}, {"measurement": "luciferase activity in lung and heart tissues", "setting": "[4]; 500 μg per mouse iv, 1 hour before CLDC", "result": "drastic reductions in luciferase activity"}, {"measurement": "CLDC mediated transfection of lung cells", "setting": "[4]; 10 hours post exposure", "result": "still inhibits CLDC mediated transfection of lung cells"}, {"measurement": "rhodamine-lipid found in the lung and liver", "setting": "[4]; one hour pretreatment", "result": "significantly decreased levels of rhodamine-lipid"}, {"measurement": "p4241 plasmid in total DNA from lungs and livers (Southern analysis)", "setting": "[4]; pretreated for 1 hour", "result": "decreased levels of p4241 plasmid"}, {"measurement": "magnitude of luciferase depression in tissues", "setting": "[4]; pretreated for 1 hour in vivo", "result": "approximately 100 fold"}, {"measurement": "decrease in p4241 plasmid in nuclear DNA isolated from lungs", "setting": "[4]; treated versus untreated animals", "result": 3, "unit": "fold"}, {"measurement": "transfection by calcium phosphate", "setting": "[5]", "result": "inhibited the transfection"}]}
{"compound": "heparin", "values": [{"measurement": "CLDC transfection in vitro after pretreatment of cells", "setting": "[2]", "result": "largely blocked"}, {"measurement": "CLDC-mediated gene transfer following intravenous injection of CLDC into mice", "setting": "[4]; mouse, in vivo, iv", "result": "abolished CLDC-mediated gene transfer"}]}
{"compound": "heparinase I", "values": [{"measurement": "reporter plasmid DNA in lungs, fold less than control lungs (Southern analysis)", "setting": "[4]; [7]", "result": 2, "unit": "fold"}, {"measurement": "rhodamine labelled lipid recovered from lungs", "setting": "[4]; [7]", "result": "significantly decreased the levels of rhodamine labelled lipid"}, {"measurement": "transfection efficiency of CLDC (luciferase) in lungs, hearts and spleens", "setting": "[4]; [7]", "result": "significantly decreased"}]}
